Data: ChEMBL document CHEMBL3286253, “Design, synthesis, and structure-activity relationship studies of novel thioether pleuromutilin derivatives as potent antibacterial agents” (J Med Chem, 2014)
In brackets after ≈: the same amount, converted by molar mass.

Experiments:
[1] = system: Staphylococcus aureus; assay: Antibacterial activity against Staphylococcus aureus […] after 16 hrs by agar dilution method; type: functional
[2] = molecular target: T1, Cytochrome P450 3A4 (Homo sapiens, UniProt P08684); assay: Inhibition of CYP3A4 in human liver microsomes using midazolam as substrate after 15 mins by LC/MS/MS analysis
[3] = system: Staphylococcus aureus; assay: Antibacterial activity against methicillin-sensitive Staphylococcus aureus after 16 hrs by agar dilution method; type: functional
[4] = molecular target: Cytochrome P450 2D6 (Homo sapiens, UniProt P10635); assay: Inhibition of CYP2D6 in human liver microsomes using dextromethorphan as substrate after 15 mins by LC/MS/MS analysis
[5] = system: Staphylococcus aureus; assay: Antibacterial activity against methicillin-resistant Staphylococcus aureus after 16 hrs by agar dilution method; type: functional
[6] = molecular target: T1, Cytochrome P450 3A4; assay: Inhibition of CYP3A4 in human liver microsomes using testosterone as substrate after 15 mins by LC/MS/MS analysis
[7] = molecular target: Cytochrome P450 2C19 (Homo sapiens, UniProt P33261); assay: Inhibition of CYP2C19 in human liver microsomes using mephenytoin as substrate after 15 mins by LC/MS/MS analysis
[8] = AUC (0 to t) in Sprague-Dawley rat at 2 mg/kg, iv administered as cassette dosing; type: ADME, organism-based; set-up: dose 2 mg/kg, route intravenous; details: plasma
[9] = molecular target: Cytochrome P450 2C9 (Homo sapiens, UniProt P11712); assay: Inhibition of CYP2C9 in human liver microsomes using tolbutamide as substrate after 15 mins by LC/MS/MS analysis
[10] = Elimination half life in Sprague-Dawley rat at 2 mg/kg, iv administered as cassette dosing; type: ADME, organism-based; set-up: dose 2 mg/kg, route intravenous; details: in vivo, read-out: beta t1/2 (converted)
[11] = system: Staphylococcus aureus; assay: Antibacterial activity against clinical isolate of methicillin-sensitive Staphylococcus aureus infected in iv dosed mouse administered 1 hr after infection for 4 days; type: functional
[12] = system: Staphylococcus aureus; assay: Antibacterial activity against clinical isolate of methicillin-sensitive Staphylococcus aureus infected in iv dosed mouse assessed as host survival administered 1 hr after infection for 4 days; type: functional
[13] = Volume of distribution at steady state in Sprague-Dawley rat at 2 mg/kg, iv administered as cassette dosing; type: ADME, organism-based; set-up: dose 2 mg/kg, route intravenous; details: in vivo, read-out: Vdss
[14] = system: Staphylococcus epidermidis; assay: Antibacterial activity against methicillin-resistant Staphylococcus epidermidis after 16 hrs by agar dilution method; type: functional
[15] = system: Staphylococcus epidermidis; assay: Antibacterial activity against methicillin-sensitive Staphylococcus epidermidis after 16 hrs by agar dilution method; type: functional
[16] = system: Staphylococcus aureus; assay: Antibacterial activity against of methicillin-resistant Staphylococcus aureus ATCC 33591 infected in iv dosed neutropenic mouse assessed as host survival administered 1 hr after infection measured after 24 hrs; type: functional; details: ATCC 33591, iv
[17] = molecular target: T2, Cytochrome P450 1A2 (Homo sapiens, UniProt P05177); assay: Inhibition of CYP1A2 in human liver microsomes using phenacetin as substrate after 15 mins by LC/MS/MS analysis
T2 sequence (P05177 whole entry): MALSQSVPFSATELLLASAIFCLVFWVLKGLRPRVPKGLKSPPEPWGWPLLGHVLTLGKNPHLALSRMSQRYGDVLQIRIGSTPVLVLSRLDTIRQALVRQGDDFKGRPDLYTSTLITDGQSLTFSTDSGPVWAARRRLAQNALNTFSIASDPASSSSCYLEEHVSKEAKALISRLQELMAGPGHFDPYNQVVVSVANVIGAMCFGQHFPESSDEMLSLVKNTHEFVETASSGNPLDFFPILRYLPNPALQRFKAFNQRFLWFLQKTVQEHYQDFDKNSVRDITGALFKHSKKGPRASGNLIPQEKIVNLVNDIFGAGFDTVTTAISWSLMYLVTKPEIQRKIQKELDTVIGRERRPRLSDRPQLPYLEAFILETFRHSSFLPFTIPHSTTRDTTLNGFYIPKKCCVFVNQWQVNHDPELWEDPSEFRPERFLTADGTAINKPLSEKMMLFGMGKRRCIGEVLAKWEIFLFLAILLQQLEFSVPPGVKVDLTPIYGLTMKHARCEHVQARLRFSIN

[18] = system: Staphylococcus aureus; assay: Antibacterial activity against of methicillin-sensitive Staphylococcus aureus ATCC 19636 infected in iv dosed mouse administered 1 hr after infection measured after 48 hrs; type: functional
[19] = system: Streptococcus pneumoniae; assay: Antibacterial activity against penicillin-resistant Streptococcus pneumoniae after 16 hrs by agar dilution method; type: functional
[20] = system: Staphylococcus aureus; assay: Antibacterial activity against of methicillin-resistant Staphylococcus aureus ATCC 33591 infected in iv dosed neutropenic mouse administered 1 hr after infection measured after 24 hrs; type: functional
[21] = Clearance in Sprague-Dawley rat at 2 mg/kg, iv administered as cassette dosing; type: ADME, organism-based; set-up: dose 2 mg/kg, route intravenous; details: in vivo
[22] = Mean residence time in Sprague-Dawley rat at 2 mg/kg, iv administered as cassette dosing; type: ADME, organism-based; set-up: dose 2 mg/kg, route intravenous; details: in vivo
[23] = system: Staphylococcus aureus; assay: Antibacterial activity against of methicillin-sensitive Staphylococcus aureus ATCC 19636 infected in iv dosed mouse assessed as host survival administered 1 hr after infection measured after 48 hrs; type: functional; details: ATCC 19636, iv
[24] = Elimination half life in Sprague-Dawley rat at 10 mg/kg, iv; type: ADME, organism-based; set-up: dose 10 mg/kg, route intravenous; details: in vivo, read-out: beta t1/2 (converted)
[25] = Clearance in Sprague-Dawley rat at 10 mg/kg, iv; type: ADME, organism-based; set-up: dose 10 mg/kg, route intravenous; details: in vivo
[26] = Mean residence time in Sprague-Dawley rat at 10 mg/kg, iv; type: ADME, organism-based; set-up: dose 10 mg/kg, route intravenous; details: in vivo
[27] = Volume of distribution at steady state in Sprague-Dawley rat at 10 mg/kg, iv; type: ADME, organism-based; set-up: dose 10 mg/kg, route intravenous; details: in vivo, read-out: Vdss
[28] = AUC (0 to t) in Sprague-Dawley rat at 10 mg/kg, iv; type: ADME, organism-based; set-up: dose 10 mg/kg, route intravenous; details: plasma
[29] = Chemical stability of solid state of the compound assessed as compound remaining after 24 hrs by UV/HPLC analysis; type: physicochemical; details: read-out: Stability
[30] = system: Rattus norvegicus; assay: Tmax in Sprague-Dawley rat assessed as 14-O-(((5-hydroxymethylpyridin-3-yl)sulfanyl)acetyl)mutilin level at 10 mg/kg, iv; type: ADME, organism-based; set-up: dose 10 mg/kg, route intravenous; details: in vivo
[31] = Plasma concentration in Sprague-Dawley rat at 10 mg/kg, iv after 15 mins; type: ADME, organism-based; set-up: dose 10 mg/kg, route intravenous
[32] = Aqueous solubility of the compound in water at pH 7.4; details: water
[33] = Chemical stability of aqueous solution state of the compound assessed as compound remaining after 14 days by UV/HPLC analysis; type: physicochemical; details: read-out: Stability
[34] = Chemical stability of aqueous solution state of the compound assessed as compound remaining after 24 hrs by UV/HPLC analysis; type: physicochemical; details: read-out: Stability
[35] = Chemical stability of solid state of the compound assessed as compound remaining after 100 days by UV/HPLC analysis; type: physicochemical; details: read-out: Stability
[36] = Tmax in Sprague-Dawley rat at 10 mg/kg, iv; type: ADME, organism-based; set-up: dose 10 mg/kg, route intravenous; details: in vivo

T1 sequence (P08684 whole entry): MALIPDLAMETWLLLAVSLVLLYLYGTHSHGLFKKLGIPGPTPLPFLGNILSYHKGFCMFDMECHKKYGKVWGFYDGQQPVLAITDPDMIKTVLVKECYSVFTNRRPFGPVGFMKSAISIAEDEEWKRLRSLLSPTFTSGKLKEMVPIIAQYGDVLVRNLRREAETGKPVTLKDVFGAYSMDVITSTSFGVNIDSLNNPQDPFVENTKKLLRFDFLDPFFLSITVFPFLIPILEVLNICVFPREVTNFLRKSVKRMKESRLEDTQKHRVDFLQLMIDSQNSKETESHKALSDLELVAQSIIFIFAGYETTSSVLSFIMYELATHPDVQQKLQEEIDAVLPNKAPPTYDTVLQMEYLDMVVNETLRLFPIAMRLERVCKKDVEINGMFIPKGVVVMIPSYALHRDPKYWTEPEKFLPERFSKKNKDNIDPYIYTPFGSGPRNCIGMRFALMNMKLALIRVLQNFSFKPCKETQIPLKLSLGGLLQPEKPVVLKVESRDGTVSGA
Cytochrome P450 2C9, sequence (P11712 whole entry): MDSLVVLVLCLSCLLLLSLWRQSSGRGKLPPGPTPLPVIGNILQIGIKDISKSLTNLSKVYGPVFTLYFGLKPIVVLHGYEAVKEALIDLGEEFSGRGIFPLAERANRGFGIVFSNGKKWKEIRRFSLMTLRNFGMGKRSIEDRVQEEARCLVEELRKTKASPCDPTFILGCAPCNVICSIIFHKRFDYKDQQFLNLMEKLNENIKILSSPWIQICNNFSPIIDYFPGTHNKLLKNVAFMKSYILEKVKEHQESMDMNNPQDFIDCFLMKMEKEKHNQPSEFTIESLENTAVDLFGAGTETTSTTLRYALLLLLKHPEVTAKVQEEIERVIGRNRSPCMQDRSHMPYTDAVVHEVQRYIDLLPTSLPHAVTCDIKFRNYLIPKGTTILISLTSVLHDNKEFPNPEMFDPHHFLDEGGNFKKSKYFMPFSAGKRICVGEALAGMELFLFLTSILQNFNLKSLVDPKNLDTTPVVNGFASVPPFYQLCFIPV
Cytochrome P450 2C19, sequence (P33261 whole entry): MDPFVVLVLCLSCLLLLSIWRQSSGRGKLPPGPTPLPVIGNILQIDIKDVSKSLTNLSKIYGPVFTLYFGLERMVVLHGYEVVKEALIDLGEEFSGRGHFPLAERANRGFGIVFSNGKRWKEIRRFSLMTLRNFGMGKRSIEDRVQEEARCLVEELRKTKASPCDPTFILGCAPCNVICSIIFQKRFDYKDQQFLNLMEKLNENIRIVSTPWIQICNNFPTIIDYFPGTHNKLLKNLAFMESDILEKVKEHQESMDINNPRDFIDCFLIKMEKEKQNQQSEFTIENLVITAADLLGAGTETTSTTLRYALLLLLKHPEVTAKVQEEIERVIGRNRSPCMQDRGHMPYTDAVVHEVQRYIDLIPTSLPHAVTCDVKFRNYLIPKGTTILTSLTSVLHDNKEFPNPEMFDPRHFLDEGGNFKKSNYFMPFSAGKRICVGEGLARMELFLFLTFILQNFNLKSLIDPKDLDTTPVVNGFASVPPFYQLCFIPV
Cytochrome P450 2D6, sequence (P10635 whole entry): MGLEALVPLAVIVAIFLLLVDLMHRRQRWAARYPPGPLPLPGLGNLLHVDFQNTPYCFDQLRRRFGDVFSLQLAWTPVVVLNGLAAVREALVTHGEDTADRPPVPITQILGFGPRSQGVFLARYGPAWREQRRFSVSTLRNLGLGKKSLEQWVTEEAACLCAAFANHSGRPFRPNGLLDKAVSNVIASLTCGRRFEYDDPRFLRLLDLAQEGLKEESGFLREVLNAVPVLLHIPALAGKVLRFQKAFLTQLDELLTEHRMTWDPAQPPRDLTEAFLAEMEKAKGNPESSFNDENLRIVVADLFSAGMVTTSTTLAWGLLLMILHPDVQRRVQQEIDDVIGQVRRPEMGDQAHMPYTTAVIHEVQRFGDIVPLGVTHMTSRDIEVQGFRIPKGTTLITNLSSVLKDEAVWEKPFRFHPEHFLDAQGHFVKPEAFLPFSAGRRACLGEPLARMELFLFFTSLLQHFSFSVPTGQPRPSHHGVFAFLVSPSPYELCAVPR

Row | Structure (SMILES) | MIC [1] [µg/mL] | MIC [3] [µg/mL] | MIC [5] [µg/mL] | MIC [11] [µg/mL] | ED50 [12] [mg/kg] | MIC [14] [µg/mL] | MIC [15] [µg/mL] | ED50 [16] [mg/kg] | MIC [18] [µg/mL] | MIC [19] [µg/mL] | MIC [20] [µg/mL] | ED50 [23] [mg/kg] | half-life [24] [min] | clearance [25] [mL/min/kg] | MRT [26] [min] | Vd [27] [L/kg] | AUC(0-t) [28] [ng·h/mL] | also measured
1 | C=C[C@]1(C)C[C@@H](OC(=O)CSc2cncc(NC(=O)CN3CCC(O)CC3)c2)[C@]2(C)[C@H](C)CC[C@]3(CCC(=O)[C@H]32)[C@@H](C)[C@@H]1O | 0.031 (≈ 0.0494 µM) | 0.125 (≈ 0.199 µM) | 0.063 (≈ 0.1 µM) | 0.063 (≈ 0.1 µM) | 16.7 | 0.063 (≈ 0.1 µM) | 0.125 (≈ 0.199 µM) | 3.13 | 0.063 (≈ 0.1 µM) | 0.063 (≈ 0.1 µM) | 0.125 (≈ 0.199 µM) | 9.02 |  |  |  |  |  | IC50 [2]: 1.89 µM; IC50 [4]: 11.2 µM; IC50 [6]: 1.63 µM; IC50 [7]: > 25 µM; AUC(0-t) [8]: 650 ng·h/mL; IC50 [9]: > 25 µM; half-life [10]: 40.2 min; Vd [13]: 1.9 L/kg; IC50 [17]: > 25 µM; clearance [21]: 53.3 mL/min/kg; MRT [22]: 36.6 min
2 | C=C[C@]1(C)C[C@@H](OC(=O)CSc2cncc(CO)c2)[C@]2(C)[C@H](C)CC[C@]3(CCC(=O)[C@H]32)[C@@H](C)[C@@H]1O | 0.031 (≈ 0.0618 µM) | 0.063 (≈ 0.126 µM) | 0.031 (≈ 0.0618 µM) |  |  | 0.031 (≈ 0.0618 µM) | 0.031 (≈ 0.0618 µM) |  |  | 0.063 (≈ 0.126 µM) |  |  | 360 | 48 | 32.4 | 1.56 | 3480 | 
3 | CC(=O)NC[C@H]1CN(c2ccc(N3CCOCC3)c(F)c2)C(=O)O1 [LINEZOLID] |  |  |  | 1 (≈ 2.96 µM) | 15.6 |  |  | 9.39 | 1 (≈ 2.96 µM) |  | 1 (≈ 2.96 µM) | 7.89 |  |  |  |  |  | 
4 | C=C[C@]1(C)C[C@@H](OC(=O)CSc2cncc(COP(=O)([O-])[O-])c2)[C@]2(C)[C@H](C)CC[C@]3(CCC(=O)[C@H]32)[C@@H](C)[C@@H]1O.[Na+].[Na+] |  |  |  | > 32 | 29.2 |  |  |  |  |  |  |  | 382 | 83.3 | 39 | 3.26 | 1580 | remaining at 24 h [29]: 98.1%; Tmax [30]: < 5 min; concentration at […] [31]: 3 ng/mL; solubility [32]: 106 mg/mL; remaining at 336 h [33]: 98.1%; remaining at 24 h [34]: 98.1%; remaining at 2400 h [35]: 98.1%; Tmax [36]: 4.8 min
